{"source": "patent US9937136B2", "about": "“Methods for treating radiation induced gastrointestinal tract injury” (RDD PHARMA LTD., priority 2013, dated 2018)", "system": "radiation induced gastrointestinal tract injury", "experiment": "Radiation-induced gastrointestinal tract injury in mice, mucosal alteration histological scoring", "format": "in vivo, male C57BL/6 mice", "conditions": "enemas 75 mg/kg body weight for 9 days from day of irradiation; Cs-137 12 Gy to pelvic area; versus saline enemas", "experimental": "Fourteen male C57BL/6 mice were treated with enemas containing either 75 mg/kg body weight of Mesna or saline as a control for 9 days post-exposure to Cs-137 radiation (12 Gy) in the pelvic area. Radiation Injury Histological Scoring (0=no change, 3=severe change) was employed to assess treatment efficacy. The present invention is based in part on the unexpected finding that the rectal administration of Mesna to mice experiencing radiation induced gastrointestinal tract injury, reduces symptoms of the condition. In the present study, 14 male C57BL/6 mice were randomly divided into two groups—treatment group and control group. The pelvic area (containing the ano-rectal part of the intestine) of each mouse was exposed to a Cs-137 source and irradiated over 2 minutes at a rate of 6 Gy/min (a 12 Gy dose). Starting from the day of irradiation and for a period of 9 days, mice in the treatment group received enemas containing Mesna at a dose of 75 mg/kg body weight. Animals in the control group received saline enemas as a control. Animals were sacrificed nine days post irradiation and gross necropsy of the anus, rectum and colon was performed and documented by high resolution color pictures. […]", "data": [{"smiles": "O=S(=O)([O-])CCS.[Na+]", "note": "[Mesna, sodium 2-sulfanylethanesulfonate]", "values": [{"measurement": "mucosal alteration score (0=no change, 3=severe change)", "result": "significantly reduced"}]}]}
